According to patent publication US8895522B2, “Composition and method for the prevention, treatment and/or alleviation of an inflammatory disease” (Index Pharmaceuticals AB, priority 2005, dated 2014):
In the oligonucleotide strings, read from the 5' end, every base follows the letter of its sugar. An asterisk marks phosphorothioate; unmarked linkages are phosphodiester. Other units and linkages are bracketed, terminal groups are in braces. A string of capitals states the bases alone. d = 2'-deoxy (DNA)

Experiments:
human PBMC [1] = test: Induction of IL-10 from healthy human PBMC (ELISpot); type: cell-based; conditions: PBMC from 5 healthy individuals, 48 hours
Description: (§1) Whole blood was obtained from healthy blood donors. PBMCs were prepared from 30 ml whole blood according to the following protocol:
(§2) 30 ml blood was transferred directly into heparinized tubes. All blood was transferred into one 50 ml Falcon tube and PBS added up to 50 ml. 15 ml Ficoll (17-1440-03, obtained from Amersham Bioscience AB, Uppsala) was then added into two falcon tubes (50 ml). The PBS-treated blood was then carefully added on the top of to Ficoll, 25 ml to each tube. The tubes were then centrifuged 25 min at 1700 RPM at RT (20° C.).
(§3) RPMIc medium was prepared under sterile conditions, using a 0.22 uM filter. (RPMIc denotes a RPMI 1640 culture medium (R0883, Sigma) supplemented with 5% heat-inactivated (56° C.,1 h) FCS 1.5 mM L-glutamine (G7513, Sigma), 100 U/ml penicillin and 100 ug/ml streptomycin, PEST (P0781, Sigma), hepes (H0887, Sigma), and gentamycin (G1272, Sigma)).
(§4) The interphase was carefully pipetted from the two tubes into 2x 50mi Falcon tubes. PBS was added up to 50 ml in each tube, and the tubes centrifuged for 10 min at 1700 RPM (4° C.).
(§5) The supernatant was discarded, and PBS added to 30 ml, whereupon the tubes were centrifuged at 10 min at 1500 RPM (4° C.). Again, the supernatant was discarded, 10 ml PBS added, and the pellets from the two falcon tubes pooled.
(§6) The cells were counted and left in PBS, then centrifuged at 1200 RPM, 10 min. Medium was then added to obtain the concentration of interest, and the cells counted (16 squares)×3. The mean value was calculated and multiplied with the dilution factor×10^4=cells/ml. Diluting the cells to 10 million/ml will result in 500.000 cells/50 ul medium, 6 million/ml will be 300.000/50 ul medium.
(§7) Elispot assays where performed according to the manufactures recommended guidelines (MabTech) and the plates were analyzed using an AID ELISpot reader system (Autoimmun Diagnostika GmbH, Strassberg, Germany).
Approximately 500,000 PBMC cells per well, derived from blood from healthy human donors, were incubated for 48 hours in the presence of the different oligonucleotides. Specifically, SEQ.ID.NO 1, SEQ.ID.NO 2, SEQ.ID.NO 6 and SEQ.ID.NO 8. Following incubation, the wells were developed according to the kit supplier's recommendations and the average number of positive cells producing IL-10 per well were counted using an AID ELISpot reader system, (Autoimmun Diagnostika GmbH, Strassberg, Germany).

human PBMC [2] = test: Induction of IFN-alpha from healthy human PBMC (ELISpot); type: cell-based; conditions: PBMC from 10 healthy individuals, 48 hours
Description: as §1, §2, §3, §4, §5, §6, §7
For this assay again 500,000 PBMC cells per well, derived from healthy human blood were incubated for 48 hours in the presence of the different oligonucleotides. Specifically, SEQ.ID.NO 1, SEQ.ID.NO 2, and SEQ.ID.NO 8. Following incubation, the wells were developed according to the kit suppliers recommendations and the average number of positive cells producing IFN-alpha per well were determined using an AID ELISpot reader.

[3] = system: steroid refractory/dependent IBD patients (ulcerative colitis and Crohn's disease); test: Human pilot proof of concept study in steroid resistant/dependent patients; type: in vivo; conditions: for Clinical response at week 1, responders: 5/7 patients, on concomitant steroid therapies
Description: A small pilot study was conducted in steroid refractory/dependent IBD patients with the following objectives.
Primary objective: To assess the safety issues regarding the use of the DNA based oligonucleotide denoted as SEQ.ID.NO.1 in ulcerative colitis and Crohn's disease patients.
Secondary objective: To explore the clinical efficacy as determined by endoscopic and clinical remission/improvement rates, histological improvement and changes in clinical laboratory parameters.
The study was placebo controlled; double blinded single dose and considered patients that were unresponsive to corticosteroids or corticosteroid dependent who where on concomitant steroid therapies.
Doses levels used were 3 mg and 30 mg given as a single rectal administration

[4] = system: patients with mild to moderately active ulcerative colitis; test: Clinical phase II study in ulcerative colitis patients; type: in vivo, human; conditions: for Clinical response at Week 1: No, n (%) / Clinical response at Week 1: Yes, n (%): single rectal dose, ITT/Safety population; for clinical response rate at week 1, all receiving active drug: all four dose levels pooled (26/119)
Description: A large 150 patient study performed in ulcerative colitis patients who were neither on concomitant steroid therapies nor were described as being steroid refractory/dependent.
Primary objective: To evaluate the ability of each of the four dose levels (0.3 mg, 3 mg, 30 mg and 100 mg) of oligonucleotide SEQ.ID.NO.1 as an anti-inflammatory therapy to induce clinical remission in patients with mild to moderately active ulcerative colitis (UC), as compared with placebo.
Secondary objective: To assess the tolerability of single rectal doses of SEQ.ID.NO.1 oligonucleotide and to further evaluate the efficacy and safety of SEQ.ID.NO.1 oligonucleotide at four dose levels and to assess the pharmacokinetics of SEQ.ID.NO.1 oligonucleotide after rectal administration, as compared to placebo.

[5] = single rectal administration 3 mg or 30 mg

## 5′-G*G*A*ACAGTTCGTCCAT*G*G*C-3′ (DNA dG*dG*dA*dAdCdAdGdTdTdCdGdTdCdCdAdT*dG*dG*dC) [SEQ.ID.NO 1, (Hu p65)AS, CpG-containing ODN; * marks phosphorothioate linkage, others phosphodiester]
Human PBMC [1]
  concentration from which IL-10 producing cells are induced: around 5 uM
Human PBMC [1]; FIG. 11
  induction of IL-10 producing cells: clear potential to induce IL-10 producing cells
Human PBMC [2]
  concentration at which induction of IFN-alpha starts / is apparent: 1 µM
Human PBMC [2]; FIG. 13
  induction of IFN-alpha producing cells: clear inducing potential
[3]; after single rectal administration
  time to response of responding patients: within a week
[3]; of the 7 patients that received the drug
  patients still in remission and steroid free: two from the 7 patients
[3]; [5]
  serious adverse events: no serious adverse events were recorded
  Clinical response at week 1, responders: 71%
[3]; single rectal administration 3 mg or 30 mg, listed as Active
  Clinical response at week 1, responders: 71%
[3]; single rectal administration, 3 mg and 30 mg dose groups
  efficacy: good efficacy in both dose groups
[4]; 0.3 mg (N = 31)
  Clinical response at Week 1: No, n (%): 23 (74.2) n (%)
  Clinical response at Week 1: Yes, n (%): 8 (25.8) n (%)
[4]; 3 mg (N = 29)
  Clinical response at Week 1: No, n (%): 23 (79.3) n (%)
  Clinical response at Week 1: Yes, n (%): 6 (20.7) n (%)
[4]; 30 mg (N = 30)
  Clinical response at Week 1: No, n (%): 23 (76.7) n (%)
  Clinical response at Week 1: Yes, n (%): 7 (23.3) n (%)
[4]; 100 mg (N = 29)
  Clinical response at Week 1: No, n (%): 24 (82.8) n (%)
  Clinical response at Week 1: Yes, n (%): 5 (17.2) n (%)
[4]
  clinical response rate at week 1, all receiving active drug: 22%
[4]; listed as Active
  clinical response rate at week 1, all receiving active drug: 22%
[4]; one single dose from 0.3 to 100 mg, over a 12 week period
  induction of clinical, endoscopic or histopathological remissions or responses: could not confirm
[4]; single rectal doses 0.3 to 100 mg
  safety profile: good safety profile
